# Assay results from the kinase profiling compilation of Christmann-Franck et al. (2016).
# Assays:
# AKT2 (human) = AKT2 (human) (UniProt P31751); experiment: Caliper, Mobility shift assay off-chip
# ALK NPM1 (human) = ALK NPM1 (human) (UniProt P06748+Q9UM73); experiment: Caliper, Mobility shift assay off-chip
# CAMK2B (human) = CAMK2B (human) (UniProt Q13554); experiment: Caliper, Mobility shift assay off-chip
# FES (human) = FES (human) (UniProt P07332); experiment: Caliper, Mobility shift assay off-chip
# MUSK (human) = MUSK (human) (UniProt O15146); experiment: Caliper, Mobility shift assay off-chip
# NEK2 (human) = NEK2 (human) (UniProt P51955); experiment: Caliper, Mobility shift assay off-chip
# NEK4 (human) = NEK4 (human) (UniProt P51957); experiment: Caliper, Mobility shift assay off-chip
# NTRK1 (human) = NTRK1 (human) (UniProt P04629); experiment: Caliper, Mobility shift assay off-chip
# PRKACG (human) = PRKACG (human) (UniProt P22612); experiment: Caliper, Mobility shift assay off-chip
# SPHK1 (human) = SPHK1 (human) (UniProt Q9NYA1); experiment: Caliper, Mobility shift assay off-chip
# TAB1 (human) = TAB1 (human) (UniProt Q15750); experiment: Caliper, Mobility shift assay off-chip
# BMPR1A (human) = BMPR1A (human) (UniProt P36894); experiment: ELISA
# BRAF (human) = BRAF (human) (UniProt P15056); experiment: ELISA; settings: compound 0.2 µM
# LIMK1 (human) = LIMK1 (human) (UniProt P53667); experiment: ELISA
# MAP2K1 (human) = MAP2K1 (human) (UniProt Q02750); experiment: ELISA
# MAP2K2 (human) = MAP2K2 (human) (UniProt P36507); experiment: ELISA
# MAP2K4 (human) = MAP2K4 (human) (UniProt P45985); experiment: ELISA
# MAP2K5 (human) = MAP2K5 (human) (UniProt Q13163); experiment: ELISA; settings: compound 0.2 µM
# MAP2K6 (human) = MAP2K6 (human) (UniProt P52564); experiment: ELISA
# MAP2K7 (human) = MAP2K7 (human) (UniProt O14733); experiment: ELISA
# MAP3K1 (human) = MAP3K1 (human) (UniProt Q13233); experiment: ELISA
# MAP3K10 (human) = MAP3K10 (human) (UniProt Q02779); experiment: ELISA
# MAP3K11 (human) = MAP3K11 (human) (UniProt Q16584); experiment: ELISA
# MAP3K12 (human) = MAP3K12 (human) (UniProt Q12852); experiment: ELISA
# MAP3K2 (human) = MAP3K2 (human) (UniProt Q9Y2U5); experiment: ELISA
# MAP3K3 (human) = MAP3K3 (human) (UniProt Q99759); experiment: ELISA
# MAP3K5 (human) = MAP3K5 (human) (UniProt Q99683); experiment: ELISA
# MAP3K8 (human) = MAP3K8 (human) (UniProt P41279); experiment: ELISA
# MAP3K9 (human) = MAP3K9 (human) (UniProt P80192); experiment: ELISA
# MOS (human) = MOS (human) (UniProt P00540); experiment: ELISA
# PLK4 (human) = PLK4 (human) (UniProt O00444); experiment: ELISA
# RAF1 (human) = RAF1 (human) (UniProt P04049); experiment: ELISA
# STK11 (human) = STK11 (human) (UniProt Q15831); experiment: ELISA
# TTK (human) = TTK (human) (UniProt P33981); experiment: ELISA
# WEE1 (human) = WEE1 (human) (UniProt P30291); experiment: ELISA
# AKT2 (human), sequence (P31751 whole entry, looked up): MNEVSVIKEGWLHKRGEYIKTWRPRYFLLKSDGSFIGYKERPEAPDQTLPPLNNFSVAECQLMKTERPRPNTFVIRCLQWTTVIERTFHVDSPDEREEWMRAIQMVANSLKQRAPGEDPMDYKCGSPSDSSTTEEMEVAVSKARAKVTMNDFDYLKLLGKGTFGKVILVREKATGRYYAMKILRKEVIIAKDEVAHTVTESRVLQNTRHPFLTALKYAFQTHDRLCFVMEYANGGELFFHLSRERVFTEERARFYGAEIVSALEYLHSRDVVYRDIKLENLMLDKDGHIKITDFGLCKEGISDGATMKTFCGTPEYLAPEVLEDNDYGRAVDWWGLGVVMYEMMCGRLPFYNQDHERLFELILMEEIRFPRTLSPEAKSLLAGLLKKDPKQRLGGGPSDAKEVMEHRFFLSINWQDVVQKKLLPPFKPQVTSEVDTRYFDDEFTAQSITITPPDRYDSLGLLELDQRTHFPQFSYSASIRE
# MOS (human), sequence (P00540 whole entry, looked up): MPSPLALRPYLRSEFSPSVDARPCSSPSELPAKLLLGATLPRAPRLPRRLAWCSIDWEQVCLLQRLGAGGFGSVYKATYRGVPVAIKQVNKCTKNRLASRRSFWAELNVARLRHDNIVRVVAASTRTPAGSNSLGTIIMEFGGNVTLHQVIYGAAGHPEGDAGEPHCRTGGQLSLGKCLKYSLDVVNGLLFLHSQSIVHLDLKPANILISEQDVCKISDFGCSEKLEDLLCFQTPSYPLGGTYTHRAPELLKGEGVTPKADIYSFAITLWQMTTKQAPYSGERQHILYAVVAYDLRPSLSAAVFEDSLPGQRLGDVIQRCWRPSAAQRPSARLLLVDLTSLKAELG
# MAP2K1 (human), sequence (Q02750 whole entry, looked up): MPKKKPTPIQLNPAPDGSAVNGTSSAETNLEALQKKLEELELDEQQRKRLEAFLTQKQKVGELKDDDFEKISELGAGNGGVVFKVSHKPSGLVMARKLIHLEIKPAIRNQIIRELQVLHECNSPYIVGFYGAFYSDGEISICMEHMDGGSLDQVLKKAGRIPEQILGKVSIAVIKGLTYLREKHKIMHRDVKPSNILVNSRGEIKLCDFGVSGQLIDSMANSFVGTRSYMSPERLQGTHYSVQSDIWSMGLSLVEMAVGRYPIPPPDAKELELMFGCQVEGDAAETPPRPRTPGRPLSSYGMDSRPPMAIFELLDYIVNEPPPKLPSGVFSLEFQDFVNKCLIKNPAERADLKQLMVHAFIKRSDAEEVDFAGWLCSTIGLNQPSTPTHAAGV
# NEK4 (human), sequence (P51957 whole entry, looked up): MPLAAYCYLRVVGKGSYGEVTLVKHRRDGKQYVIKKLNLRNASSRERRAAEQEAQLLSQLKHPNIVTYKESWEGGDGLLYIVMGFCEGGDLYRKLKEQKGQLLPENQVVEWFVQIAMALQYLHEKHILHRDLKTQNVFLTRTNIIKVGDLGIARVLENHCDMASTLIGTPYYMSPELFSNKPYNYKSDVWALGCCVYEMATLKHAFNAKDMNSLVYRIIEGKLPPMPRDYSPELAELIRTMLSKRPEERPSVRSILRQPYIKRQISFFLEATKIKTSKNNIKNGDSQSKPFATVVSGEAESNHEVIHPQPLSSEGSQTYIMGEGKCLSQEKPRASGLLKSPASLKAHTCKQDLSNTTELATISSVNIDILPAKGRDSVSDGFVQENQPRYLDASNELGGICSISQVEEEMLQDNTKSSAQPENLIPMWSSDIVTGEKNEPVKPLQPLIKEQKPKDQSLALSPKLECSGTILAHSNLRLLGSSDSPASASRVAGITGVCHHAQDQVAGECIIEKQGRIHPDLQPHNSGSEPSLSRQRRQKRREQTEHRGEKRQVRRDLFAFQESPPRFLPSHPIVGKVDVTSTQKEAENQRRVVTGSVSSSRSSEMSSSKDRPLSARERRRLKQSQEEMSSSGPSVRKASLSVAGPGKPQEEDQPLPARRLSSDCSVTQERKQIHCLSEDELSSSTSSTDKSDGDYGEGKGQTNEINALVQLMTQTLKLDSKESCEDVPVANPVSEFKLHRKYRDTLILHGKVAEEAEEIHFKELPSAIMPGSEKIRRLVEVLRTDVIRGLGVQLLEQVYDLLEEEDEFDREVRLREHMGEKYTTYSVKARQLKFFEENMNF
# STK11 (human), sequence (Q15831 whole entry, looked up): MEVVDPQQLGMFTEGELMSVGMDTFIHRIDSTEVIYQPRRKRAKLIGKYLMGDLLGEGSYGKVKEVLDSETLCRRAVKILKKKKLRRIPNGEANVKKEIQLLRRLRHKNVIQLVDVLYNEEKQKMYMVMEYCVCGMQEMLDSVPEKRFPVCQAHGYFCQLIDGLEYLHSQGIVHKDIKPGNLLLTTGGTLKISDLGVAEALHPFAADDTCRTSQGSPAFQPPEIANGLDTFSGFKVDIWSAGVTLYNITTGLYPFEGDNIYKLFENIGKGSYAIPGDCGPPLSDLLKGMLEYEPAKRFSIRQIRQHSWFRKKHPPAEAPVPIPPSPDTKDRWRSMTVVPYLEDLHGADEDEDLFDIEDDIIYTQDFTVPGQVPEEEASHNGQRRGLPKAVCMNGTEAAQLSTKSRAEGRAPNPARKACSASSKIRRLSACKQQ
# BMPR1A (human), sequence (P36894 whole entry, looked up): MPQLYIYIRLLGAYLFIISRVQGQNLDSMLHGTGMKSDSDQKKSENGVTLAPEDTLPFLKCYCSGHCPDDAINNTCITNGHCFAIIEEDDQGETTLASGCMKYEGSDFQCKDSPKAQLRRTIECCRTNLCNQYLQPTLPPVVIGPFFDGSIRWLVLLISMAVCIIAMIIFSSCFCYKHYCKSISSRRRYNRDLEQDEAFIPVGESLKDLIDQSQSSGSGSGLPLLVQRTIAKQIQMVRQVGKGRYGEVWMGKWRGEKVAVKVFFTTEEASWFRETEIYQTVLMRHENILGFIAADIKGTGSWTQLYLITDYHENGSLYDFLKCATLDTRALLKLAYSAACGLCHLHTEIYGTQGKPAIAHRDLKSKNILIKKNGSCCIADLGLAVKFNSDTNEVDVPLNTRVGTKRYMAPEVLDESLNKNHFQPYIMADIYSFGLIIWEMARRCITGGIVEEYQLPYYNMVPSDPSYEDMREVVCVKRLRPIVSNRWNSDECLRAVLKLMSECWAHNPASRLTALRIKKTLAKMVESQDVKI
# TAB1 (human), sequence (Q15750 whole entry, looked up): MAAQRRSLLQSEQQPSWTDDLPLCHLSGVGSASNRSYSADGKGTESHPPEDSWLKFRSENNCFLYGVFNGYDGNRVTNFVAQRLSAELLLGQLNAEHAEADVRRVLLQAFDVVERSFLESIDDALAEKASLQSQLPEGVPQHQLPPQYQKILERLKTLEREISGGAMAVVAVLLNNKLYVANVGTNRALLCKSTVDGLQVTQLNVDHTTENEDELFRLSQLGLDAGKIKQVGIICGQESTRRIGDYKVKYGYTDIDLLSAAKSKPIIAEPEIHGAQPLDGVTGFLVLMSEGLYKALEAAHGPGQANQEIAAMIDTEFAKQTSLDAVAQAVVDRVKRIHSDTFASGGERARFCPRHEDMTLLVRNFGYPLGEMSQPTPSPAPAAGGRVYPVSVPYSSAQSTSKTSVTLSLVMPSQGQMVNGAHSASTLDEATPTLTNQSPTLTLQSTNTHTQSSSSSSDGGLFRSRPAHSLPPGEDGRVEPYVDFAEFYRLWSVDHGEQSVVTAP
# MAP2K2 (human), sequence (P36507 whole entry, looked up): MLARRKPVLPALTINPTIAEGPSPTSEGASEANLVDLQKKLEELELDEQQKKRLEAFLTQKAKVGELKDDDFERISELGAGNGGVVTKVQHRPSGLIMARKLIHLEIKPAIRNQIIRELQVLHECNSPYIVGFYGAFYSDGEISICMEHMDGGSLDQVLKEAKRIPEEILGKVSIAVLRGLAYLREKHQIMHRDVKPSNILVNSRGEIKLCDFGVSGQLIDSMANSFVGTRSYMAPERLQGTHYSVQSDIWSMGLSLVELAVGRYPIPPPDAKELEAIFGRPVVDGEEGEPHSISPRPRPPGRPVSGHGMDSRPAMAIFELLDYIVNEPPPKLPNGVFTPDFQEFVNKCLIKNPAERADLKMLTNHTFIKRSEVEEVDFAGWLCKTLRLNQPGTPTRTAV
# MAP3K11 (human), sequence (Q16584 whole entry, looked up): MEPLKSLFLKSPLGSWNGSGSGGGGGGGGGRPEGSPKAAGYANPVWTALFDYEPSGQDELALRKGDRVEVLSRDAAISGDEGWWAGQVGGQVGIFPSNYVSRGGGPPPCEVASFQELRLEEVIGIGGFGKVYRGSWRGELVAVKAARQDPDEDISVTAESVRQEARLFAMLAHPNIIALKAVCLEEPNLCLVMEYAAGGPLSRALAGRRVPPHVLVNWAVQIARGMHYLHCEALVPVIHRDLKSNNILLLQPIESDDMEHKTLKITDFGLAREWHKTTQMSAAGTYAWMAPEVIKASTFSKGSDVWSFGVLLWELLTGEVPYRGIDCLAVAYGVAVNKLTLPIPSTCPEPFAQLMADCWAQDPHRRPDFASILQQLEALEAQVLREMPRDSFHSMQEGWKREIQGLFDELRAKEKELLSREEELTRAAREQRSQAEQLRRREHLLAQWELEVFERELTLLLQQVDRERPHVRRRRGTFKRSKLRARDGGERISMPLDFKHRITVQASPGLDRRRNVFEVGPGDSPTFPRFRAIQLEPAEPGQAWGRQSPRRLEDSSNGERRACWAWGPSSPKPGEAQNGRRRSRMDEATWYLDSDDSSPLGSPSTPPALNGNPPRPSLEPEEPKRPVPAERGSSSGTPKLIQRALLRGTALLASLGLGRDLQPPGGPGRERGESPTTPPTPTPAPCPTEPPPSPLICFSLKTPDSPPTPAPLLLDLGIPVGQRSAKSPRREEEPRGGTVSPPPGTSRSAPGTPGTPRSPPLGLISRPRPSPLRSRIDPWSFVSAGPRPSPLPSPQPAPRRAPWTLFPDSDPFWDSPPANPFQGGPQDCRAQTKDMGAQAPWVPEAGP
smiles,measurement,setting,value
COc1cc2c(Oc3ccc4[nH]c(C)cc4c3F)ncnc2cc1OCCCN1CCCC1,inhibition,AKT2 (human); compound 0.02 µM,6.9%
same,inhibition,AKT2 (human); compound 0.2 µM,-0.1%
same,inhibition,ALK NPM1 (human); compound 0.02 µM,3.6%
same,inhibition,ALK NPM1 (human); compound 0.2 µM,5.1%
same,inhibition,CAMK2B (human); compound 0.02 µM,-4.3%
same,inhibition,CAMK2B (human); compound 0.2 µM,-6%
same,inhibition,FES (human); compound 0.02 µM,6.9%
same,inhibition,FES (human); compound 0.2 µM,7.8%
same,inhibition,MUSK (human); compound 0.02 µM,-4.8%
same,inhibition,MUSK (human); compound 0.2 µM,-1.6%
same,inhibition,NEK2 (human); compound 0.02 µM,6.3%
same,inhibition,NEK2 (human); compound 0.2 µM,5.3%
same,inhibition,NEK4 (human); compound 0.02 µM,-3.8%
same,inhibition,NEK4 (human); compound 0.2 µM,-3.9%
same,inhibition,NTRK1 (human); compound 0.02 µM,3.4%
same,inhibition,NTRK1 (human); compound 0.2 µM,3.9%
same,inhibition,PRKACG (human); compound 0.02 µM,-4.7%
same,inhibition,PRKACG (human); compound 0.2 µM,-1.4%
same,inhibition,SPHK1 (human); compound 0.02 µM,-5.6%
same,inhibition,SPHK1 (human); compound 0.2 µM,-7.8%
same,inhibition,TAB1 (human); compound 0.02 µM,5.3%
same,inhibition,TAB1 (human); compound 0.2 µM,8.9%
same,inhibition,BMPR1A (human); compound 0.02 µM,8.3%
same,inhibition,BMPR1A (human); compound 0.2 µM,-7.9%
same,inhibition,BRAF (human),2%
same,inhibition,LIMK1 (human); compound 0.02 µM,-7.3%
same,inhibition,LIMK1 (human); compound 0.2 µM,-7.8%
same,inhibition,MAP2K1 (human); compound 0.02 µM,-0.6%
same,inhibition,MAP2K1 (human); compound 0.2 µM,-2.4%
same,inhibition,MAP2K2 (human); compound 0.02 µM,-4.9%
same,inhibition,MAP2K2 (human); compound 0.2 µM,-23%
same,inhibition,MAP2K4 (human); compound 0.02 µM,0.9%
same,inhibition,MAP2K4 (human); compound 0.2 µM,-5.2%
same,inhibition,MAP2K5 (human),-8.2%
same,inhibition,MAP2K6 (human); compound 0.02 µM,2.8%
same,inhibition,MAP2K6 (human); compound 0.2 µM,-5%
same,inhibition,MAP2K7 (human); compound 0.02 µM,-6.9%
same,inhibition,MAP2K7 (human); compound 0.2 µM,-3.5%
same,inhibition,MAP3K1 (human); compound 0.02 µM,1.2%
same,inhibition,MAP3K1 (human); compound 0.2 µM,-1%
same,inhibition,MAP3K10 (human); compound 0.02 µM,3.6%
same,inhibition,MAP3K10 (human); compound 0.2 µM,6%
same,inhibition,MAP3K11 (human); compound 0.02 µM,-1.7%
same,inhibition,MAP3K11 (human); compound 0.2 µM,-0.3%
same,inhibition,MAP3K12 (human); compound 0.02 µM,8.9%
same,inhibition,MAP3K12 (human); compound 0.2 µM,10.3%
same,inhibition,MAP3K2 (human); compound 0.02 µM,1.9%
same,inhibition,MAP3K2 (human); compound 0.2 µM,4.4%
same,inhibition,MAP3K3 (human); compound 0.02 µM,1.2%
same,inhibition,MAP3K3 (human); compound 0.2 µM,2.9%
same,inhibition,MAP3K5 (human); compound 0.02 µM,8.7%
same,inhibition,MAP3K5 (human); compound 0.2 µM,4%
same,inhibition,MAP3K8 (human); compound 0.02 µM,-3.2%
same,inhibition,MAP3K8 (human); compound 0.2 µM,-1%
same,inhibition,MAP3K9 (human); compound 0.02 µM,4.9%
same,inhibition,MAP3K9 (human); compound 0.2 µM,10.5%
same,inhibition,MOS (human); compound 0.02 µM,4.2%
same,inhibition,MOS (human); compound 0.2 µM,3.7%
same,inhibition,PLK4 (human); compound 0.02 µM,7.6%
same,inhibition,PLK4 (human); compound 0.2 µM,8.4%
same,inhibition,RAF1 (human); compound 0.02 µM,3.1%
same,inhibition,RAF1 (human); compound 0.2 µM,-1.7%
same,inhibition,STK11 (human); compound 0.02 µM,0.9%
same,inhibition,STK11 (human); compound 0.2 µM,19%
same,inhibition,TTK (human); compound 0.02 µM,-4%
same,inhibition,TTK (human); compound 0.2 µM,-2%
same,inhibition,WEE1 (human); compound 0.02 µM,-5.4%
same,inhibition,WEE1 (human); compound 0.2 µM,0.5%
